One assay has as its system Acinetobacter baumannii. Kind of assay: Antibacterial activity against carbapenem-resistant Acinetobacter baumannii 16-33 by agar method. The format is functional.
Assay [1] concerns Staphylococcus epidermidis. Nature of the assay: Antibacterial activity against methicillin-resistant Staphylococcus epidermidis 16-5 by agar method. The format is functional.
Assay [2] concerns Escherichia coli. Nature of the assay: Antibacterial activity against NDM-1 positive Escherichia coli ATCC 2469 by agar method. The format is functional.
Assay [3] has as its system Escherichia coli. Nature of the assay: Antibacterial activity against carbapenem-resistant Escherichia coli 08-85 mcr-1 positive isolate by checkerboard assay. The format is functional.
For assay [4], the system named is Escherichia coli. Kind of assay: Antibacterial activity against ESBLs negative Escherichia coli ATCC 25922 by agar method. The format is functional.
Assay [5] concerns Enterococcus faecalis. Kind of assay: Antibacterial activity against Vancomycin-sensitive Enterococcus faecalis ATCC 29212 by agar method. The format is functional.
Assay [6] relates to Enterobacter cloacae. Kind of assay: Antibacterial activity against carbapenem-resistant Enterobacter cloacae D01 mcr-1 negative isolate by checkerboard assay. The format is functional.
The subject of assay [7] is Enterobacter cloacae. Nature of the assay: Synergistic antibacterial activity against carbapenem-resistant Enterobacter cloacae D01 mcr-1 negative isolate assessed as fractional inhibitory concentration index in presence of colistin by checkerboard assay. The format is functional.
The subject of assay [8] is Enterobacter cloacae. Nature of the assay: Synergistic antibacterial activity against carbapenem-resistant Enterobacter cloacae D01 mcr-1 negative isolate in presence of colistin by checkerboard assay. The format is functional.
Assay [9] concerns Enterococcus faecalis. Nature of the assay: Antibacterial activity against vancomycin-resistant Enterococcus faecalis ATCC 51299 by agar method. The format is functional.
Assay [10] has as its system Staphylococcus aureus. Kind of assay: Antibacterial activity against methicillin-resistant Staphylococcus aureus ATCC 33591 by agar method. The format is functional.
The next assay deals with A549. Kind of assay: Cytotoxicity against human A549 cells. The format is cell-based.
The test system of assay [11] is Staphylococcus epidermidis. Kind of assay: Potency index, ratio of Levofloxacin MIC to test compound MIC for antibacterial activity against methicillin-resistant Staphylococcus epidermidis […] 16-5. The format is functional.
The subject of assay [12] is Escherichia coli. Nature of the assay: Antibacterial activity against ESBLs positive Escherichia coli ATCC 35218 by agar method. The format is functional.
Assay [13] relates to Staphylococcus epidermidis. Nature of the assay: Antibacterial activity against methicillin-sensitive Staphylococcus epidermidis ATCC 12228 by agar method. The format is functional.
The test system of assay [14] is Staphylococcus aureus. Nature of the assay: Antibacterial activity against methicillin-sensitive Staphylococcus aureus ATCC 29213 by agar method. The format is functional.
Assay [15] concerns Escherichia coli. Kind of assay: Synergistic antibacterial activity against carbapenem-resistant Escherichia coli 08-85 mcr-1 positive isolate assessed as fractional inhibitory concentration index in presence of colistin by checkerboard assay. The format is functional.
In assay [16] the test system is Escherichia coli. Nature of the assay: Synergistic antibacterial activity against carbapenem-resistant Escherichia coli 08-85 mcr-1 positive isolate in presence of colistin by checkerboard assay. The format is functional.

Values after ≈ are worked out from the molar mass of the structure shown.

Here are results for eight compounds from ChEMBL document CHEMBL4814028, “Design, synthesis, and antibacterial evaluation of PFK-158 derivatives as potent agents against drug-resistant bacteria” (Bioorg Med Chem Lett, 2021).

In the case of `O=C(/C=C/c1ccc2ccc(C(F)(F)F)cc2n1)c1ccncc1` [PFK-158], the MIC with Acinetobacter baumannii was more than 32 µg/mL; in [1], 2 µg/mL (≈ 6.09 µM); against Escherichia coli [2] it was more than 32 µg/mL; with Escherichia coli [3], 1020 µg/mL; against Escherichia coli [4], more than 32 µg/mL; against Enterococcus faecalis [5], 4 µg/mL (≈ 12.2 µM). Besides, the minimum inhibitory concentration (MIC) with Enterobacter cloacae [6] is 1020 µg/mL; with Enterobacter cloacae [8], 0.5 µg/mL; in the assay on Enterococcus faecalis [9], 4 µg/mL (≈ 12.2 µM); in the assay with Staphylococcus aureus [10], 2 µg/mL (≈ 6.09 µM); in the assay with Escherichia coli [12] it was more than 32 µg/mL; in assay [13], 1 µg/mL (≈ 3.05 µM). For the same compound, the results for the minimal inhibitory concentration (MIC) with Staphylococcus aureus [14] and in the assay with Escherichia coli [16] were 2 µg/mL (≈ 6.09 µM) and 2 µg/mL, respectively. Also, the results for the “fractional inhibitory concentration index (FICI)” value in the assay on Enterobacter cloacae [7] and with Escherichia coli [15] were 0.008 and 0.252, respectively. This compound also returned a concentration for half-maximal inhibition (IC50) in the assay on A549 of 15 µM. Further, the Ratio in assay [11] was determined as 2.
Turning to `O=C(/C=C/c1ccc2c(C(F)(F)F)cccc2n1)c1cccnc1`, the MIC against Acinetobacter baumannii is 128 µg/mL (≈ 390 µM); in assay [1], 2 µg/mL (≈ 6.09 µM); against Escherichia coli [2], more than 128 µg/mL; with Escherichia coli [4], more than 128 µg/mL; in the assay on Enterococcus faecalis [5], 32 µg/mL (≈ 97.5 µM); against Enterococcus faecalis [9], 32 µg/mL (≈ 97.5 µM). The MIC in the assay with Staphylococcus aureus [10] is 2 µg/mL (≈ 6.09 µM); in the assay on Escherichia coli [12] it was more than 128 µg/mL; in assay [13] it was 2 µg/mL (≈ 6.09 µM); against Staphylococcus aureus [14] it was 2 µg/mL (≈ 6.09 µM). The IC50 in the assay on A549 is more than 50 µM. Besides, the Ratio in assay [11] amounted to 2.
In the case of `O=C(/C=C/c1ccc2c(C(F)(F)F)cccc2n1)c1ccccn1`, the minimum inhibitory concentration (MIC) in the assay with Acinetobacter baumannii was 128 µg/mL (≈ 390 µM); in assay [1] it was 2 µg/mL (≈ 6.09 µM); against Escherichia coli [2], more than 128 µg/mL; in the assay with Escherichia coli [4], more than 128 µg/mL; with Enterococcus faecalis [5], more than 128 µg/mL; against Enterococcus faecalis [9] it was more than 128 µg/mL. Moreover, the minimal inhibitory concentration (MIC) in the assay with Staphylococcus aureus [10] was 1 µg/mL (≈ 3.05 µM); against Escherichia coli [12] it was more than 128 µg/mL; in [13], 2 µg/mL (≈ 6.09 µM); against Staphylococcus aureus [14] it was 1 µg/mL (≈ 3.05 µM). In the assay on A549, this compound had an IC50 of 43.1 µM.
`O=C(/C=C/c1ccc2c(C(F)(F)F)cccc2n1)c1ccncc1`: the MIC in the assay on Acinetobacter baumannii was 128 µg/mL (≈ 390 µM); in assay [1], 4 µg/mL (≈ 12.2 µM); against Escherichia coli [2], more than 128 µg/mL; against Escherichia coli [4] it was more than 128 µg/mL; with Enterococcus faecalis [5], more than 128 µg/mL; with Enterococcus faecalis [9], more than 128 µg/mL. In addition, the MIC against Staphylococcus aureus [10] was 1 µg/mL (≈ 3.05 µM); with Escherichia coli [12], more than 128 µg/mL; in assay [13], 2 µg/mL (≈ 6.09 µM); against Staphylococcus aureus [14] it was 1 µg/mL (≈ 3.05 µM). For the same compound, the IC50 in the assay on A549 came to 45.4 µM.
Consider `O=C(/C=C/c1ccc2ncccc2c1)c1ccccn1`, for which the MIC against Acinetobacter baumannii was 128 µg/mL (≈ 492 µM); in assay [1] it was 8 µg/mL (≈ 30.7 µM); with Escherichia coli [2] it was more than 128 µg/mL; with Escherichia coli [4], more than 128 µg/mL; in the assay with Enterococcus faecalis [5], 32 µg/mL (≈ 123 µM); in the assay on Enterococcus faecalis [9] it was 32 µg/mL (≈ 123 µM). Further, the MIC in the assay with Staphylococcus aureus [10] is 8 µg/mL (≈ 30.7 µM); against Escherichia coli [12] it was more than 128 µg/mL; in assay [13], 8 µg/mL (≈ 30.7 µM); in the assay on Staphylococcus aureus [14], 8 µg/mL (≈ 30.7 µM).
With `O=C(/C=C/c1ccc2ccccc2n1)c1ccc2c(c1)OCO2`, the minimum inhibitory concentration (MIC) (with Acinetobacter baumannii; in [1]; in the assay on Escherichia coli [2]; with Escherichia coli [4]; with Enterococcus faecalis [5]; against Enterococcus faecalis [9]) was more than 128 µg/mL each time. Also, the MIC (in the assay with Staphylococcus aureus [10]; with Escherichia coli [12]; in assay [13]; in the assay with Staphylococcus aureus [14]) was more than 128 µg/mL each time.
As to `O=C(/C=C/c1ccc2ccc(C(F)(F)F)cc2n1)c1ccc2c(c1)OCO2`, the minimum inhibitory concentration (MIC) (against Acinetobacter baumannii; in [1]; in the assay on Escherichia coli [2]; against Escherichia coli [4]; in the assay on Enterococcus faecalis [5]; in the assay with Enterococcus faecalis [9]) was more than 128 µg/mL in each case. In addition, the MIC (against Staphylococcus aureus [10]; in the assay with Escherichia coli [12]; in [13]; in the assay on Staphylococcus aureus [14]) was more than 128 µg/mL each time.
Turning to `O=C(/C=C/c1cnc2ccccc2c1)c1ccccn1`, the minimal inhibitory concentration (MIC) is 128 µg/mL (≈ 492 µM) in the assay with Acinetobacter baumannii; 8 µg/mL (≈ 30.7 µM) in [1]; more than 128 µg/mL in the assay on Escherichia coli [2]; more than 128 µg/mL against Escherichia coli [4]; 32 µg/mL (≈ 123 µM) with Enterococcus faecalis [5]; 32 µg/mL (≈ 123 µM) against Enterococcus faecalis [9]. The minimal inhibitory concentration (MIC) is 8 µg/mL (≈ 30.7 µM) against Staphylococcus aureus [10], more than 128 µg/mL against Escherichia coli [12], 8 µg/mL (≈ 30.7 µM) in [13] and 8 µg/mL (≈ 30.7 µM) in the assay with Staphylococcus aureus [14].
